# pIC50: −log10 of the molar value.
# Test system: up-regulation of ICAM-1 (CD54) by IFNγ in U937 human monocytic cells
# Assay: U937 IFNγ ICAM1 FACS Assay
# Assay type: cell-based
# Details: U937 cells stimulated with IFNγ; ICAM-1 expression by FACS; read-out: IC50, Example 44
# Summary of the method: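 Readout was the geometric-mean APC anti-ICAM-1 signal by FACS on live U937 monocytic cells, with % live cells also recorded. Cells were exposed to compounds (8 points, 3-fold dilutions, duplicates) for 30 min at 37 °C before 18–24 h of IFNγ stimulation. EC50 values were computed from the dose curve.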
row,Molecule,pIC50
1,"Cc1cc(COc2ccc(Nc3nc(Nc4ccc(C)c(S(N)(=O)=O)c4)ncc3F)cc2C)no1 [Compound I-234, N2-(3-Aminosulfonyl-4-methylphenyl)-5-fluoro-N4-[3-methyl-4-(5-methylisoxazol-3-yl)methyleneoxyphenyl]-2,4-pyrimidinediamine]",5.69
2,"Cc1ccc(Nc2ncc(F)c(Nc3ccc(OC4CCN(C)C4)cc3)n2)cc1S(N)(=O)=O (centres unmarked) [II-10, N2-(3-Aminosulfonyl-4-methylphenyl)-5-fluoro-N4-(N-methylpyrrolidin-3-yloxyphenyl)-2,4-pyrimidinediamine]",5.86
3,"COc1cc(Nc2ncc(F)c(Nc3cc(C)c(OCC#N)c(C)c3)n2)ccc1S(N)(=O)=O [Compound I-32, N2-(4-Aminosulfonyl-3-methoxy)phenyl-N4-(4-cyanomethoxy-3,5-dimethyl)phenyl-5-fluoro-2,4-pyrimidinediamine]",5.71
4,"Cc1cc(COc2ccc(Nc3nc(Nc4cc(Cl)c(C)c(S(N)(=O)=O)c4)ncc3F)cc2F)no1 [Compound I-223, N2-(3-Aminosulfonyl-5-chloro-4-methylphenyl)-5-fluoro-N4-[3-fluoro-4-(5-methylisoxazol-3-yl)methyleneoxyphenyl]-2,4-pyrimidinediamine]",5.92
5,"COc1cc(Nc2ncc(F)c(Nc3ccc(OCC#N)cc3)n2)ccc1S(N)(=O)=O [Compound I-28, N2-(4-Aminosulfonyl-3-methoxyphenyl)-N4-(4-cyanomethoxy)phenyl-5-fluoro-2,4-pyrimidinediamine]",5.72
6,"Cc1noc(CCc2ccc(Nc3nc(Nc4ccc(F)c(S(N)(=O)=O)c4)ncc3F)cc2)n1 [Compound I-267, N2-(3-Aminosulfonyl-4-fluorophenyl)-5-fluoro-N4-[4-(3-methyl-1,2,4-oxadiazol-5-yl)ethylenephenyl]-2,4-pyrimidinediamine]",5.30
7,"Cc1noc(COc2ccc(Nc3nc(Nc4cc(C)c(Cl)c(S(N)(=O)=O)c4)ncc3F)cc2)n1 [Compound I-265, N2-(3-Aminosulfonyl-4-chloro-5-methylphenyl)-5-fluoro-N4-[4-(3-methyl-1,2,4-oxadiazol-5-yl)methyleneoxyphenyl]-2,4-pyrimidinediamine]",6.38
8,"Cc1cc(COc2ccc(Nc3nc(Nc4cccc(S(N)(=O)=O)c4)ncc3F)cc2C)no1 [Compound I-238, N2-(3-Aminosulfonylphenyl)-5-fluoro-N4-[3-methyl-4-(5-methylisoxazol-3-yl)methyleneoxyphenyl]-2,4-pyrimidinediamine]",5.95
9,"Cc1cc(COc2ccc(Nc3nc(Nc4ccc(C)c(S(N)(=O)=O)c4)ncc3F)cc2)no1 [Compound I-219, N2-(3-Aminosulfonyl-4-methylphenyl)-5-fluoro-N4-[4-(5-methylisoxazol-3-yl)methyleneoxyphenyl]-2,4-pyrimidinediamine]",6.23
10,"Cc1nc(COc2ccc(Nc3nc(Nc4cccc(S(N)(=O)=O)c4)ncc3F)cc2)no1 [Compound I-276, N2-(3-Aminosulfonyl)phenyl-5-fluoro-N4-[4-(5-methyl-1,2,4-oxadiazol-3-yl)methoxy]phenyl-2,4-pyrimidinediamine]",6.09
11,"CNS(=O)(=O)c1cc(Nc2ncc(F)c(Nc3ccc(CC#N)cc3)n2)ccc1C [III-1, 5-Fluoro-N2-[3-(N-methylaminosulfony)-4-methylphenyl]-5-fluoro-N4-(4-cyanomethylphenyl)-2,4-pyrimidinediamine]",5.95
12,"Cc1nc(COc2ccc(Nc3nc(Nc4cccc(S(N)(=O)=O)c4)ncc3F)cc2)cs1 [Compound I-281, N2-(3-Aminosulfonylphenyl)-5-fluoro-N4-[4-(2-methylthiazol-4-yl)methyleneoxyphenyl]-2,4-pyrimidinediamine]",6.01
13,"Cc1ccc(Nc2ncc(F)c(Nc3ccc(CC#N)cc3)n2)cc1S(N)(=O)=O [III-7, N2-(3-Aminosulfonyl-4-methyl)phenyl-N4-(4-cyanomethyl)phenyl-5-fluoro-2,4-pyrimidinediamine]",5.96
14,"CCN(CC)CCNS(=O)(=O)c1ccc(Nc2ncc(F)c(Nc3cccc(OCc4nc(C)no4)c3)n2)cc1 [Compound I-256, N2-[4-(2-N,N-Diethylaminoethyl)aminosulfonylphenyl)-5-fluoro-N4-[3-(3-methyl-1,2,4-oxadiazol-5-yl)methyleneoxyphenyl]-2,4-pyrimidinediamine]",4.80
15,"CCN(CC)CCNS(=O)(=O)c1cccc(Nc2ncc(F)c(Nc3ccc(OCc4cc(C)on4)c(C)c3)n2)c1 [Compound I-244, N2-[3-(2-N,N-Diethylaminoethyl)aminosulfonylphenyl)-5-fluoro-N4-[3-methyl-4-(5-methylisoxazol-3-yl)methyleneoxyphenyl]-2,4-pyrimidinediamine]",5.51

# Further lines, results first:
row,pIC50,Molecule
1,5.72,"Cc1nc(COc2ccc(Nc3nc(Nc4ccc(S(N)(=O)=O)cc4)ncc3F)cc2)no1 [Compound I-275, N2-(4-Aminosulfonyl)phenyl-5-fluoro-N4-[4-(5-methyl-1,2,4-oxadiazol-3-yl)methoxy]phenyl-2,4-pyrimidinediamine]"
2,5.61,"Cc1noc(COc2cccc(Nc3nc(Nc4cccc(S(N)(=O)=O)c4)ncc3F)c2)n1 [Compound I-252, N2-(3-Aminosulfonylphenyl)-5-fluoro-N4-[3-(3-methyl-1,2,4-oxadiazol-5-yl)methyleneoxyphenyl]-2,4-pyrimidinediamine]"
3,6.01,"CNS(=O)(=O)c1cc(Nc2ncc(F)c(Nc3ccc(OCc4nc(C)no4)cc3)n2)ccc1C [Compound I-260, 5-Fluoro-N2-[3-N-(methyl)aminosulfonyl-4-methylphenyl)-N4-[4-(3-methyl-1,2,4-oxadiazol-5-yl)methyleneoxyphenyl]-2,4-pyrimidinediamine]"
4,6.36,"Cc1cc(COc2ccc(Nc3nc(Nc4cc(C)c(Cl)c(S(N)(=O)=O)c4)ncc3F)cc2)no1 [Compound I-218, N2-(3-Aminosulfonyl-4-chloro-5-methylphenyl)-5-fluoro-N4-[4-(5-methylisoxazol-3-yl)methyleneoxyphenyl]-2,4-pyrimidinediamine]"
5,5.16,"COc1cc(Nc2ncc(F)c(Nc3ccc(CC#N)cc3)n2)ccc1S(N)(=O)=O [III-9, N2-(4-Aminosulfonyl-3-methoxy)phenyl-N4-(4-cyanomethyl)phenyl-5-fluoro-2,4-pyrimidinediamine]"
6,5.75,"N#CCCc1ccc(Nc2nc(Nc3ccc(F)c(S(N)(=O)=O)c3)ncc2F)cc1 [III-16, N2-(3-Aminosulfonyl-4-fluorophenyl)-N4-[4-(cyanoethylene)phenyl]-5-fluoro-2,4-pyrimidinediamine]"
7,6.37,"Cc1cc(Nc2nc(Nc3cccc(S(N)(=O)=O)c3)ncc2F)cc(C)c1OCC#N [Compound I-26, N2-(3-Aminosulfonyl)phenyl-N4-(4-cyanomethoxy-3,5-dimethyl)phenyl-5-fluoro-2,4-pyrimidinediamine]"
8,6.44,"N#CCOc1ccc(Nc2nc(Nc3cccc(S(N)(=O)=O)c3)ncc2F)cc1 [Compound I-17, N2-(3-Aminosulfonyl)phenyl-N4-(4-cyanomethoxy)phenyl-5-fluoro-2,4-pyrimidinediamine]"
9,5.00,"CN1CCN(S(=O)(=O)c2cccc(Nc3ncc(F)c(Nc4ccc(OCC#N)cc4)n3)c2)CC1 [Compound I-19, N4-(4-Cyanomethoxy)phenyl-5-fluoro-N2-[3-(4-methylpiperazin-1-yl)sulfonyl]phenyl-2,4-pyrimidinediamine]"
10,5.98,"5-Fluoro-N4-[4-(3-methyl-1,2,4-oxadiazol-3-yl)methyleneoxyphenyl]-N2-[(3-N-propanamido)sulfonylphenyl)]-2,4-pyrimidinediamine [Compound I-262]"
11,6.02,"Cc1noc(COc2ccc(Nc3nc(Nc4cccc(S(=O)(=O)NCc5oc(=O)oc5C)c4)ncc3F)cc2)n1 [Compound I-257, N2-{3-[(N-5-Methyl-1,3-dioxolene-2-one-4-yl)methylene]aminosulfonylphenyl}-5-fluoro-N4-[4-(3-methyl-1,2,4-oxadiazol-5-yl)methyleneoxyphenyl]-2,4-pyrimidinediamine]"
12,4.38,"N2-(3-Aminocarbonyl-5-methylphenyl)-5-fluoro-N2-[4-(1-methylpyrazol-5-yl)amidophenyl)-2,4-pyrimidinediamine [II-21]"
13,5.83,"Cc1nc(COc2ccc(Nc3nc(Nc4ccc(S(N)(=O)=O)cc4)ncc3F)cc2)cs1 [Compound I-285, N2-(4-Aminosulfonylphenyl)-5-fluoro-N4-[4-(2-methylthiazol-4-yl)methyleneoxyphenyl]-2,4-pyrimidinediamine]"
14,5.53,"CCN(CC)CCNS(=O)(=O)c1cccc(Nc2ncc(F)c(Nc3ccc(OCc4csc(C)n4)cc3)n2)c1 [Compound I-283, N2-[3-(2-N,N-Diethylaminoethyl)aminosulfonylphenyl)-5-fluoro-N4-[4-(2-methylthizol-4-yl)methyleneoxyphenyl]-2,4-pyrimidinediamine]"
15,5.35,"Cc1cc(COc2ccc(Nc3nc(Nc4ccc(C)c(S(N)(=O)=O)c4)ncc3F)cc2Cl)no1 [Compound I-221, N2-(3-Aminosulfonyl-4-methylphenyl)-N4-[3-chloro-4-(5-methylisoxazol-3-yl)methyleneoxyphenyl]-5-fluoro-2,4-pyrimidinediamine]"
16,5.08,"Cc1ccc(Nc2ncc(F)c(Nc3cccc(OC4CCCN(C)C4)c3)n2)cc1S(N)(=O)=O (racemic) [II-1, Racemic N2-(3-aminosulfonyl-4-methylphenyl)-5-fluoro-N4-{3-[(1-methylpiperidin-3-yl)oxy]phenyl}-2,4-pyrimidinediamine]"
17,5.76,"Cc1cc(COc2ccc(Nc3nc(Nc4ccc(F)c(S(N)(=O)=O)c4)ncc3F)cc2)no1 [Compound I-233, N2-(3-Aminosulfonyl-4-fluorophenyl)-5-fluoro-N4-[4-(5-methylisoxazol-3-yl)methyleneoxyphenyl]-2,4-pyrimidinediamine]"

# — patent publication US11827628B2, “Compositions and methods for inhibition of the JAK pathway” (Rigel Pharmaceuticals, Inc., priority 2005, dated 2023)
